Measurements published in US9194862B2, “Compositions and methods for determining cancer stem cell self-renewal potential” (THE REGENTS OF THE UNIVERSITY OF CALIFORNIA, priority 2009, dated 2015).

Experiments:
[1] = tested on: progenitors (CD34+CD38+Lin−) from CML BC-derived tumors; assay: CML BC progenitor engraftment in transplanted mice, FACS of human CD45+ cells in liver; type: in vivo; settings: oral gavage daily for 3 weeks, 120 μg/kg, vs vehicle, FACS of livers, n=4 vs n=5, p=0.03
Procedure: Briefly, immunocompromised neonatal mice were transplanted intrahepatically with luciferase GFP transduced myeloid sarcomas from mice transplanted with BC CSC, the methodology described in Geron et al, Cancer Cell 2008; 13(4):321-30. […] Engraftment levels were determined by FACS analysis of human CD45^+ expression in mouse livers on […] post-transplant.
FIG. 3C. Left: qPCR analysis of Mcl-1 long (blue) and short (red) transcripts from progenitors (CD34^+CD38^+Lin^−) of several normal and CML samples. […] FIG. 4 below. […] FIG. 4A. […] Representative FACS data of CD45^+ cells in mouse livers transplanted with progenitors (CD34^+CD38^+Lin^−) from CML BC-derived tumors. […] Mouse livers were harvested at 13 weeks post-transplant, stained, and analyzed for human CD45^+ cells using FACS. • FIG. 4C.

[2] = tested on: Mcl-1 long and short isoform; assay: qPCR of Mcl-1 long and short isoforms in tumor cells harvested from treated mice; type: in vivo; settings: tumor cells from treated mice (n=3) vs vehicle (n=2)
Description: For gene expression analysis, cDNA was made from RNA isolated from sorted progenitor populations (CD34^+CD38^+Lin^−). Isoform specific RT-PCR was used to determine expression levels of Bcl-2, Bcl-X, and Mcl-1 isoforms. Expression was confirmed using qPCR.

SMILES: Cc1cc2c(C(C)C)c(O)c(O)cc2c(O)c1-c1c(C)cc2c(C(C)C)c(O)c(O)cc2c1O [apogossypol]
- number/frequency of human CD45+ cells engrafted in the mouse liver (tumor cell engraftment) [1]: statistically significant (p=0.03) decrease in tumor cell engraftment
- number/frequency of human CD45+ cells engrafted in the mouse liver (tumor cell engraftment) ([1]; listed as Apogossypol): statistically significant decrease
- Mcl-1 short isoform expression [2]: higher Mcl-1 short isoform expression
